Where two headings read alike, the source gives them in different places.
Key:
[1] = biological target: Tyk2 (Homo sapiens (Human), UniProt P29597); test: pSTAT4 Cell Assay (MSD, NK92 cells); type: cell-based
[2] = biological target: JH2 domain of human Tyk2 (Homo sapiens (Human), UniProt P29597); test: JH2 Biochemical Assay (TR-FRET probe displacement); type: binding
[3] = JH2 domain of human Tyk2, TR-FRET probe displacement
[4] = TR-FRET probe displacement, JH2 domain of human Tyk2
[5] = TR-FRET probe displacement, JH2 domain

Chain of Tyk2 (P29597 whole entry, the tested form may be a part): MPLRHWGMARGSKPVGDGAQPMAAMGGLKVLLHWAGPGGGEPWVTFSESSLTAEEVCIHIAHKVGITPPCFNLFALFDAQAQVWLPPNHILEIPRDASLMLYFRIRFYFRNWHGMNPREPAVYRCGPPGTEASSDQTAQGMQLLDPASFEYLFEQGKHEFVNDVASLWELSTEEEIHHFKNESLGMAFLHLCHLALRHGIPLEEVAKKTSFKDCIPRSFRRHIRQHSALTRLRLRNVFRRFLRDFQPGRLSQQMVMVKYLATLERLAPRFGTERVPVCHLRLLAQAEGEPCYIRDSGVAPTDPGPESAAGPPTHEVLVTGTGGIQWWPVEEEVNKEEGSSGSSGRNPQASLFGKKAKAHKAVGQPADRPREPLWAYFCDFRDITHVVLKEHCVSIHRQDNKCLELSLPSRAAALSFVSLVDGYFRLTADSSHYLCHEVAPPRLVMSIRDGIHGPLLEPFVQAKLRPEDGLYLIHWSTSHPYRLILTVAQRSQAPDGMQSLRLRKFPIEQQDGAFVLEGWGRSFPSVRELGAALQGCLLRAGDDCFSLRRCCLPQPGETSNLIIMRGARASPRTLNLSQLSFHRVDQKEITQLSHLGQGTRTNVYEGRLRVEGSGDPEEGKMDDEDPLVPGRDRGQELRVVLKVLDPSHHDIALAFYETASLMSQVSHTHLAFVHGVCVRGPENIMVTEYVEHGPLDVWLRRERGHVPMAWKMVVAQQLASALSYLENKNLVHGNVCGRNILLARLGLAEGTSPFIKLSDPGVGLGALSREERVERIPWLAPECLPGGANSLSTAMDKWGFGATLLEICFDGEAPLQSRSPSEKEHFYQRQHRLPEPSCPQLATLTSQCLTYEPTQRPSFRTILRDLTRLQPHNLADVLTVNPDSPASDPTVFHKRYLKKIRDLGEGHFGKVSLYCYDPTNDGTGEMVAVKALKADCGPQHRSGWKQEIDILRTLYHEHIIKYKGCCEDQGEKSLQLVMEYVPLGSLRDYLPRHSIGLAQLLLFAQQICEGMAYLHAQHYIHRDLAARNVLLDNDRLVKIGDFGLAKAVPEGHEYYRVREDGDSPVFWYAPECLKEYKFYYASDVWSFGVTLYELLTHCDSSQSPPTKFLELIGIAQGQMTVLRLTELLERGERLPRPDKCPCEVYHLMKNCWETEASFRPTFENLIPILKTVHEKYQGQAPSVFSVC
Chain of JH2 domain of human Tyk2 (P29597 575-876): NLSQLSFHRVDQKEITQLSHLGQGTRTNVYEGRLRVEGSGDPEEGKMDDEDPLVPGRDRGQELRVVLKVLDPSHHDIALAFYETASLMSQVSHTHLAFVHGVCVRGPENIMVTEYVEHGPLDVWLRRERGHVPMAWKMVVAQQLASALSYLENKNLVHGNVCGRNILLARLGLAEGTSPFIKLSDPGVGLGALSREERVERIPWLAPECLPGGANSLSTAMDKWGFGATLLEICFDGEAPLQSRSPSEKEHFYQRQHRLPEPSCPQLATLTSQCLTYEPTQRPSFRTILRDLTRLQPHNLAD

Work on COCCOc1ccc(-c2cnc(NC(C)=O)cc2Nc2ccnc(C(C)(F)F)n2)nc1 [Example 523, N-(4′-((2-(1,1-difluoroethyl)pyrimidin-4-yl)amino)-5-(2-methoxyethoxy)-[2,3′-bipyridin]-6′-yl)acetamide] yielded an IC50 ([1]; MSD) of at most 0.01 µM and an IC50 [2, 3] of at most 0.01 µM.

Compound CC(=O)Nc1cc(Nc2cccc(C(C)(F)F)n2)c(-c2cn(C)c(=O)cn2)cn1 [Example 159, N-(4-((6-(1,1-difluoroethyl)pyridin-2-yl)amino)-5-(4-methyl-5-oxo-4,5-dihydropyrazin-2-yl)pyridin-2-yl)acetamide] has an IC50 ([1]; MSD) of 0.01 to 0.1 µM and an IC50 [2, 4] of at most 0.01 µM.

Work on COCCn1cnc(-c2cnc(NC(C)=O)cc2Nc2cc(C)nc(C(C)(F)F)n2)n1 [Example 263, N-(4-((2-(1,1-difluoroethyl)-6-methylpyrimidin-4-yl)amino)-5-(1-(2-methoxyethyl)-1H-1,2,4-triazol-3-yl)pyridin-2-yl)acetamide] yielded an IC50 ([1]; MSD) of 0.1 to 1 µM and an IC50 [2, 4] of at most 0.01 µM.

COc1nc(-c2cnc(NC(C)=O)cc2Nc2cc(C)nc(C(C)(F)F)n2)cs1 [Example 617, N-(4-((2-(1,1-difluoroethyl)-6-methylpyrimidin-4-yl)amino)-5-(2-methoxythiazol-4-yl)pyridin-2-yl)acetamide] showed an IC50 ([1]; MSD) of at most 0.01 µM and an IC50 [2, 3] of at most 0.01 µM.

CC(=O)Nc1cc(Nc2cc(C)nc(C(C)(F)F)n2)c(OC[C@]23C[C@](C)(CO2)C3)cn1 [Example 514, N-(4-((2-(1,1-difluoroethyl)-6-methylpyrimidin-4-yl)amino)-5-(((1s,4s)-4-methyl-2-oxabicyclo[2.1.1]hexan-1-yl)methoxy)pyridin-2-yl)acetamide] was tested, and the IC50 ([1]; MSD) was at most 0.01 µM and the IC50 [2, 3] was at most 0.01 µM.

Work on COCc1nccc(-c2cnc(NC(C)=O)cc2Nc2ccnc(C(C)(F)F)n2)n1 [Example 696, N-(4-((2-(1,1-difluoroethyl)pyrimidin-4-yl)amino)-5-(2-(methoxymethyl)pyrimidin-4-yl)pyridin-2-yl)acetamide] yielded an IC50 ([1]; MSD) of at most 0.01 µM and an IC50 [2, 3] of at most 0.01 µM.

CC(=O)Nc1cc(Nc2cc(C)nc(C(C)(F)F)n2)c(OCC23COCC(C2)C3)cn1 [Example 324, N-(5-((3-oxabicyclo[3.1.1]heptan-1-yl)methoxy)-4-((2-(1,1-difluoroethyl)-6-methylpyrimidin-4-yl)amino)pyridin-2-yl)acetamide] showed an IC50 ([1]; MSD) of 0.01 to 0.1 µM and an IC50 [2, 4] of at most 0.01 µM.

CC(=O)Nc1cc(Nc2cc(C)nc(C(C)(F)F)n2)c(-c2nnc(C(C)(C)C)s2)cn1 [Example 611, N-(5-(5-(tert-butyl)-1,3,4-thiadiazol-2-yl)-4-((2-(1,1-difluoroethyl)-6-methylpyrimidin-4-yl)amino)pyridin-2-yl)acetamide] showed an IC50 ([1]; MSD) of at most 0.01 µM and an IC50 [2, 3] of at most 0.01 µM.

CC(=O)Nc1cc(Nc2cc(C)nc(C(C)(F)F)n2)c(Oc2cncc(C)n2)cn1 [Example 98, N-(4-((2-(1,1-difluoroethyl)-6-methylpyrimidin-4-yl)amino)-5-((6-methylpyrazin-2-yl)oxy)pyridin-2-yl)acetamide] was tested, and the IC50 ([1]; MSD) was at least 1 µM and the IC50 [2, 4] was at least 1 µM.

CC(=O)Nc1cc(Nc2cc(C)nc(C(C)(F)F)n2)c(-c2cc(CN3CCN(C)CC3)n(C)n2)cn1 [Example 804, N-(4-((2-(1,1-difluoroethyl)-6-methylpyrimidin-4-yl)amino)-5-(1-methyl-5-((4-methylpiperazin-1-yl)methyl)-1H-pyrazol-3-yl)pyridin-2-yl)acetamide] gave an IC50 [1] of at most 0.01 µM and an IC50 [2, 5] of at most 0.01 µM.

CCc1cc(Nc2cc(NC(C)=O)ncc2-c2ccc3c(n2)OCC(C)(C)O3)nc(C(C)(F)F)n1 [Example 821, N-(4-((2-(1,1-difluoroethyl)-6-ethylpyrimidin-4-yl)amino)-5-(2,2-dimethyl-2,3-dihydro-[1,4]dioxino[2,3-b]pyridin-6-yl)pyridin-2-yl)acetamide] was tested, and the IC50 [1] was at most 0.01 µM and the IC50 [2, 5] was at most 0.01 µM.

CCCc1cnc(NC(C)=O)cc1Nc1cc(C)nc(C(C)(F)F)n1 [Example 43, N-(4-((2-(1,1-difluoroethyl)-6-methylpyrimidin-4-yl)amino)-5-propylpyridin-2-yl)acetamide] gave an IC50 ([1]; MSD) of at least 1 µM and an IC50 [2, 4] of 0.01 to 0.1 µM.
